Experimental data published in the NIST ThermoML archive (doi:10.1021/je5010214).

Settings: Liquid, Vibrating tube method

CC(C)CO [2-methyl-1-propanol]
Settings	mass density [kg/m3]
303.15 K, 20042 kPa	809.402
303.15 K, 25084 kPa	812.578
303.15 K, 30167 kPa	816.191
303.15 K, 32070 kPa	817.319
303.15 K, 33147 kPa	817.694
303.15 K, 35162 kPa	818.815
303.15 K, 38019 kPa	820.574
303.15 K, 39970 kPa	821.716
303.15 K, 42004 kPa	823.024
303.15 K, 45033 kPa	824.95
303.15 K, 49864 kPa	827.592
303.15 K, 52115 kPa	829.036
303.15 K, 55239 kPa	830.776
303.15 K, 58089 kPa	832.479
303.15 K, 60079 kPa	833.282
303.15 K, 62294 kPa	834.706
303.15 K, 65137 kPa	835.715
303.16 K, 270.1 kPa	793.901
303.16 K, 464.4 kPa	794.084
303.16 K, 779.6 kPa	794.287
303.16 K, 2945 kPa	796.031
303.16 K, 4911.2 kPa	797.923
303.16 K, 7058.6 kPa	799.569
303.16 K, 12047 kPa	803.47
303.16 K, 22055 kPa	811.092
303.16 K, 28094 kPa	815.049
303.16 K, 32939 kPa	817.604
303.16 K, 34037 kPa	818.139
303.16 K, 48317 kPa	826.769
303.16 K, 66124 kPa	836.43
308.15 K, 96.7 kPa	791.579
308.15 K, 250.6 kPa	791.714
308.15 K, 562.2 kPa	791.995
308.15 K, 991.9 kPa	792.349
308.15 K, 5219.3 kPa	795.881
308.15 K, 10282 kPa	799.926
308.15 K, 15083 kPa	803.575
308.15 K, 32866 kPa	815.75
308.15 K, 35203 kPa	817.171
308.15 K, 48031 kPa	824.96
308.15 K, 55094 kPa	828.952
308.15 K, 60161 kPa	831.729
308.15 K, 62192 kPa	832.798
308.15 K, 66004 kPa	834.804
308.16 K, 770.2 kPa	792.158
308.16 K, 2101.2 kPa	793.3
308.16 K, 3195.1 kPa	794.224
308.16 K, 7083 kPa	797.398
308.16 K, 9108 kPa	799.011
308.16 K, 12379 kPa	801.538
308.16 K, 18161 kPa	805.827
308.16 K, 20006 kPa	807.165
308.16 K, 22192 kPa	808.686
308.16 K, 25100 kPa	810.705
308.16 K, 27887 kPa	812.568
308.16 K, 30041 kPa	813.99
308.16 K, 31933 kPa	815.242
308.16 K, 33077 kPa	815.959
308.16 K, 34026 kPa	816.482
308.16 K, 35193 kPa	817.245
308.16 K, 38088 kPa	818.995
308.16 K, 40106 kPa	820.225
308.16 K, 42282 kPa	821.541
308.16 K, 45145 kPa	823.251
308.16 K, 50089 kPa	826.126
308.16 K, 52047 kPa	827.233
308.16 K, 58085 kPa	830.585
308.16 K, 65217 kPa	834.405
313.15 K, 82.9 kPa	787.4
313.15 K, 316.8 kPa	787.607
313.15 K, 491.8 kPa	787.767
313.15 K, 890.9 kPa	788.108
313.15 K, 981.5 kPa	788.182
313.15 K, 1939.6 kPa	789.038
313.15 K, 2951 kPa	789.905
313.15 K, 4889.1 kPa	791.537
313.15 K, 6856.5 kPa	793.195
313.15 K, 8886.9 kPa	794.841
313.15 K, 10029 kPa	795.77
313.15 K, 11886 kPa	797.214
